From paper PMC12707061 (National Science Review, 2025)

Legend:
[1] = system: 5-HT neurons in the dorsal raphe nucleus (DRN); experiment: c-Fos activation of DRN 5-HT neurons after ketamine; assay type: in vivo, mice; conditions: after ketamine injection
Method: (§1) All mice were deeply anesthetized with an overdose of pentobarbital and then transcardially perfused with 0.9% saline solution followed by 4% paraformaldehyde (PFA) in PBS. After 24 h of post-fixation in 4% PFA overnight at 4 °C, brains were subsequently immersed in a 30% sucrose solution for dehydration for 24-48 h. Brains were sectioned coronally at a thickness of 40 μm with a Vibration Microtome (Leica VT1200S). Coronal brain sections were washed in PBS, blocking solution containing 0.5% Triton X-100 and 5% normal bovine serum albumin was dissolved in 1x PBS. After blocking for 1-2 h and washing, brain sections were incubated with the primary antibody rabbit polyclonal anti-c-Fos (1:1000, Synaptic system) for 48 h at 4 °C. After washing, these brain sections were incubated with secondary antibody Alexa Fluor 594-conjugated donkey anti-rabbit IgG (1:1000, Jackson ImmunoResearch) at […]. Cell nuclei were identified using the 4, 6-diamidino-2-phenylindole (DAPI) stain (1:10000, Jackson ImmunoResearch). Imaging was carried out with a digital slide scanner (Olympus, VS120-S6-W) and a confocal microscope (Nikon, Ti-E+A1R SI).

[2] = system: VIP neurons in the mPFC; experiment: c-Fos immunolabeling of mPFC VIP neurons after ketamine; assay type: in vivo, mice; conditions: antidepressant dose; 1.5 h after injection; average
Method: (§2) VIP, parvalbumin (PV) and somatostatin (SST) neurons are the three main types of gamma-aminobutyric acid (GABA)ergic interneurons in the mPFC [63].
as §1

[3] = system: PV neurons in the mPFC; experiment: Activation/excitability of mPFC PV neurons after ketamine (c-Fos, patch-clamp); assay type: in vivo, mice; conditions: after ketamine injection
Method: as §2, §1

[4] = system: SST neurons in the mPFC; experiment: Activation/excitability of mPFC SST neurons after ketamine (c-Fos, patch-clamp); assay type: in vivo, mice; conditions: after ketamine injection
Method: as §2, §1

[5] = system: mPFC VIP neurons; experiment: Patch-clamp recordings of mPFC VIP neurons in slices after in vivo drug injection; set-up: species or system mice; conditions: for resting membrane potential (RMP) of VIP neurons, average: saline controls −58.8 mV
Method: The brain was removed quickly after decapitation and immediately put into ice-cold oxygenated NMDG ACSF. A few minutes later, coronal slices containing the mPFC (300 μm thickness for mice) were sectioned in cold ACSF using a vibratome (VT1200 S, Leica) and then transferred into oxygenated NMDG ACSF at 32°C for incubation and recovery for 10–15 min. […] All chemicals were purchased from Sigma–Aldrich (St. Louis, MO, USA).
(§3) All drugs were dissolved in 0.9% saline and administered by intraperitoneal (i.p.) injection.
For in intro brain slices recording, AAV-Ef1α-DIO-mCherry virus was injected in the mPFC for labeling VIP neurons, and a 26-gauge double guide cannula (center-to-center distance 0.80 mm; RWD, China) was subsequently implanted in the same site of Vip-Cre mice.
For mPFC VIP neuron recordings, brain slices were transferred into the recording chamber filled with ACSF. VIP positive neurons were visualized with differential interference contrast optics (DIC, Olympus BX61WI). The recording pipettes (4-5 MΩ) were pulled with a micropipette puller (P97, Sutter Instrument; USA). […] When the whole-cell record was formed, to record the neuronal firing, the neurons were held at I=0 pA under current-clamp mode; to measure the intrinsic membrane properties, the same neurons were held at […] and spikes were induced by increases of current injection (each step was 5 pA, range –10-45 pA). All recordings were performed for 5 minutes typically.
The specific operation is as follows: using the Threshold search function in the Clampfit software Event Detection, setting the baseline and threshold for identifying the action potential, and then automatically identifying and measuring each action potential. The curve of firing was plotted using MATLAB. All events, including the spike numbers, were finally verified by eye.

[6] = system: mPFC VIP neurons expressing the hM4Di receptor; experiment: Cell-attached recording of hM4Di-expressing mPFC VIP neurons in brain slices; assay type: cell-based, mice; conditions: 10 μM
Method: In the chemogenetic inhibition assay, we injected the AAV-DIO-hM4Di-mCherry vector into the bilateral mPFC of VIP-Cre mice. […] Behavioral experiments were performed after mice had been allowed to recover for 3 weeks after viral injection (Fig. 5A).

[7] = system: mice; experiment: MK-801 alone and with fluoxetine: behavioural tests 24 h after injection; assay type: in vivo; conditions: single injection, alone
Method: as §3

[8] = system: mice; experiment: TST, FST and OFT in mice with ketamine and pre-treatments; conditions: for locomotion and anxiety-like behaviors during the OFT: 1 h after injection; for effect of pre-treatment on ketamine's decrease of immobility in TST and FST: p-CPA i.p. once per day for 3 days, palonosetron into mPFC 0.5 h before ketamine
Method: Behavioral experiments were performed after 3-4 weeks of viral expression.
For behavioral experiments, C57BL/6 mice were recovered for at least 7 days before behavioral testing. Before micro-infusions, a 26-gauge internal injector with 3 mm projection was placed into the guide cannula, connected via PE tubing to a Hamilton micro-syringe driven by hand. […] The injector cannula was removed 3 min after infusion was finished, and corresponding behavioral tests were performed.
The mice were suspended in a computerized device allowing four animals to be recorded at one time, and were separated in a chamber, both acoustically and visually isolated. To ensure mice could not contact or climb with other things, an individual mouse was suspended 50 cm above the floor by a tail tape that was placed approximately 1 cm from the tip of the tail. The activities of the animals were recorded for 6 minutes by a video recorder. The total duration of immobility at the last 4 minutes of testing time was analyzed by one who was blinded to the test.
The FST apparatus was a clear glass tank (40 cm high and 20 cm in diameter) filled with water (25-26 °C), and the water depth was set to ensure mice could not touch the bottom with their tails or hind limbs. Mice were placed individually into the apparatus and allowed to swim for 6 minutes. The mice were considered immobile when floating in the water without struggling and making only those movements necessary to keep their heads above the water. Total immobility times during the last 4 minutes of the 6-minute testing period were analyzed by a researcher blinded to the test.
Mice were placed in a white open field chamber (38 x 38 x 40 cm) built by an acrylic plate in a room with dim light. The movement of each animal was tracked by a video camera positioned directly above the chamber (Jiliang, Shanghai). Time spent in the center zone of the chamber was a measure of anxiety behavior. Mice were allowed to move freely for 5 minutes in the arena. Total distance and center zone time were automatically analyzed by software (Jiliang, Shanghai).

[9] = system: mPFC VIP neurons; experiment: Whole-cell recordings of mPFC VIP neurons with bath application of drugs to brain slices; assay type: cell-based, mice; conditions: for activation (firing) of VIP neurons: bath application, 5-HT 5 μM, AP5 100 μM, slices from normal mice
Method: Adult (10–16 weeks old) VIP-Cre-expressing mCherry mice with or without a cannula were firstly anesthetized by being injected intraperitoneally with tribromoethanol (250 mg/kg) and then perfused transcardially with 20 mL of ice-cold N-methyl-D-glucamine (NMDG) artificial cerebrospinal fluid (ACSF) solution (oxygenated with 5% CO2 + 95% O2) containing (mM): 93 NMDG, 93 HCl, 2.5 KCl, 10 MgSO4·7H2O, 1.2 NaH2PO4·2H2O, 30 NaHCO3, 25 glucose, 20 HEPES, 5 sodium ascorbate, 3 sodium pyruvate and 2 thioureas, with 0.5 CaCl2·2H2O added (pH: 7.35, 303 mOsm). The brain was removed quickly after decapitation and immediately put into ice-cold oxygenated NMDG ACSF. A few minutes later, coronal slices containing the mPFC (300 μm thickness for mice) were sectioned in cold ACSF using a vibratome (VT1200 S, Leica) and then transferred into oxygenated NMDG ACSF at 32°C for incubation and recovery for 10–15 min. The brain slices were transferred to a normal oxygenated ACSF solution (126 mM NaCl, 2.5 mM KCl, 2 mM MgSO4·7H2O, 1.25 mM NaH2PO4·2H2O, 25 mM NaHCO3, 10 mM glucose, 2 mM CaCl2) at room temperature for 1 h. All chemicals were purchased from Sigma–Aldrich (St. Louis, MO, USA).
For mPFC VIP neuron recordings, brain slices were transferred into the recording chamber filled with ACSF. VIP positive neurons were visualized with differential interference contrast optics (DIC, Olympus BX61WI). The recording pipettes (4-5 MΩ) were pulled with a micropipette puller (P97, Sutter Instrument; USA). For whole-cell patch-clamp recording, the pipette was filled with an internal solution containing (mM) 133 potassium gluconate, 18 NaCl, 0.6 EGTA, 2 Mg·ATP, 0.3 Na3·GTP, 10 Hepes (pH: 7.20, 280-290 mOsm). […]
To investigate the underlying synergistic effects of 5-HT (5 μM, Sigma) and AP5 (100 μM, Sigma) on neuronal excitability and firing, the two drugs were alone or together continuously perfused into the recording chamber using a medicine delivery pipe after a baseline was recorded for 5 min. The spikes were recorded under […] 1 minute after the drugs were delivered. […]

[10] = system: mPFC 5-HT; experiment: In vivo real-time microdialysis of mPFC 5-HT; set-up: species or system mice; conditions: i.p. 10 mg/kg; during the 15 min after injection; baseline ∼100%
[11] = palonosetron into mPFC before ketamine

Compound: CNC1(c2ccccc2Cl)CCCCC1=O (centres unmarked) [ketamine]
- activation of DRN 5-HT neurons [1]: did not activate
- VIP neurons activated (c-Fos+ among VIP neurons) [2]: 38.8%
- changes in electrophysiological characteristics of excitability of PV neurons [3]: neither PV nor SST neurons showed any changes
- changes in electrophysiological characteristics of excitability of SST neurons [4]: neither PV nor SST neurons showed any changes
- number of spikes in response to depolarizing current pulses ([5]; 1 h after injection): remarkable increase
- percentage of firing VIP neurons ([5]; 1 h after injection, ketamine 10 mg/kg i.p., p-CPA 150 mg/kg once daily 3 days, AP5 40 nmol mPFC, fluoxetine 10 mg/kg i.p.): 75%
- resting membrane potential (RMP) of VIP neurons, average ([5]; 1 h after injection): −44.2 mV
- membrane capacitance of VIP neurons ([5]; firing neurons after ketamine): no change in membrane capacitance

Compound: C[N+]1([O-])CCN(C2=Nc3cc(Cl)ccc3Nc3ccccc32)CC1 [CNO, clozapine N-oxide]
- mPFC VIP neuron activity in brain slices [6]: significantly inhibited

Compound: C[C@]12N[C@H](Cc3ccccc31)c1ccccc12 [MK-801]
- antidepressant effects after 24 h [7]: does not result in antidepressant effects

Compound: NC(Cc1ccc(Cl)cc1)C(=O)O (racemic) [p-CPA, 4-chloro-DL-phenylalanine]
- number of spikes in response to depolarizing current pulses ([5]; 1 h after injection): decreased
- resting membrane potential (RMP) of VIP neurons, average ([5]; 1 h after injection): −69.7 mV
- locomotion and anxiety-like behaviors during the OFT [8]: did not affect locomotion or cause anxiety-like behaviors
- effect of pre-treatment on ketamine's decrease of immobility in TST and FST [8]: attenuated the ketamine-related decrease in the duration of immobility

Compound: CNCCC(Oc1ccc(C(F)(F)F)cc1)c1ccccc1 (centres unmarked) [fluoxetine]
- antidepressant effects after 24 h [7]: does not result in antidepressant effects

Compound: NC(CCCP(=O)(O)O)C(=O)O (centres unmarked) [AP5]
- resting membrane potential (RMP) of VIP neurons, average ([5]; 1 h after injection): –65.1 mV
- activation (firing) of VIP neurons [9]: did not activate VIP neurons

Compound: CC12CC3CC(C)(C1)CC(N)(C3)C2 [memantine]
- average relative-to-baseline 5-HT levels in the mPFC [10]: did not show such an effect

Compound: NCCc1c[nH]c2ccc(O)cc12 [5-HT, serotonin]
- activation (firing) of VIP neurons [9]: did not activate VIP neurons

Compound: O=C1c2cccc3c2[C@H](CCC3)CN1[C@@H]1CN2CCC1CC2 [palonosetron]
- percentage of firing VIP neurons ([5]; palonosetron into mPFC 0.5 h before ketamine i.p., controls ∼10.5%): ~10%
- change in RMP of VIP neurons [5, 11]: no change in the RMP
- change in membrane capacitance of VIP neurons [5, 11]: moderate increase in membrane capacitance
- change in membrane resistance of VIP neurons [5, 11]: no change in membrane resistance
- effect on VIP neuron activation by 5-HT combined with AP5 ([9]; palonosetron 10 μM): blocked the effect of 5-HT combined with AP5
- locomotion and anxiety-like behaviors during the OFT [8]: did not affect locomotion or cause anxiety-like behaviors
- effect of pre-treatment on ketamine's decrease of immobility in TST and FST [8]: this effect was blocked
